Measured values as given in patent US9352010B2, “Treatment of HIV-1 infection and AIDS” (The J. David Gladstone Institutes, priority 2011, dated 2016).
Entries after “also recorded” stand apart in the source; their conditions may differ.

Columns and labels:
HLAC CD4 T-cells = assay: HLAC cells overlaid on virus-producing 293T-cells, CD4 T-cell depletion; assay type: cell-based, human; settings: 24 hours co-culture
Experimental: HLACs were infected with viruses derived from the indicated HIV proviral clones in the presence of the indicated concentrations of AZT or in the absence of drugs. Six days after infection the amount of p24^gag in the medium was determined by FLAQ assay. The amount of p24^gag in the medium after infection wash (day 0) was defined as 0%. […] Viral incorporation of endogenous A3G was measured by immunoblot analysis of purified NL4-3 and Δvif NL4-3 virions harvested from 1 ml of supernatant from infected HLACs. Doses reflect 1:10 dilutions. […] Resting or activated CFSE-labeled cells were co-cultured with cells infected with WT or Δvif NL4-3 in the presence or absence of the following drugs, AZT (5 μM), AMD3100 (250 nM), the NNRTIs Efavirenz (100 nM), and Nevirapine (1 μM), or the integration inhibitors Raltegravir (30 μM) and 118-D-24 (60 μM). Data are representative of four independent experiments performed with cells from four different donors. (E) A method to assess indirect killing in HLAC with non-infectious HIV-1 clones. Fresh human tonsil is processed into HLAC and cells are cultured in suspension. At the same time 293T-cells are transfected with 1 μg HIV-1 DNA in a 24-well plate. After 12 hours, 293T-cells are washed and overlayed with 3×10^6 HLAC cells in RPMI in the presence of the indicated drugs. Virus-producing 293T-cells directly interact with target overlaying HLAC cells. After 24 hours, the HLAC suspensions are collected from wells and analyzed by flow cytometry. […] HLAC were cultured with the indicated drugs 3 hours before co-culture with 293T-cells. Percentages are normalized to the number of viable CD4 T-cells in HLAC overlaying non-transfected 293T-cells in the presence of AZT, as depicted by (*). Error bars represent standard error of the mean of three experiments performed using cells from three different HLAC donors.

IL-1β = assay: Maturation and secretion of IL-1β in abortively infected tonsillar CD4 T-cells (Western blot); assay type: cell-based, human; settings: AZT 5 μM, AMD3100 250 nM, efavirenz 100 nM
Experimental: For assessing the processing and secretion of IL-1β in abortively infected CD4 T-cells, CD4 T-cells were isolated from HLACs as described above, and were spinoculated with or without NL4-3 with the indicated drugs as describes above in vi (Spinoculation) and in FIG. 7B. For intracellular protein analysis, cells were lysed 72 hours after spinoculation in RIPA buffer (150 mM NaCl, 1% Nonidet P-40 (vol/vol), 0.5% […] (vol/vol), 0.1% SDS (vol/vol), 50 mM Tris-HCl (pH 8), 1 mM DTT), and EDTA-free Protease Inhibitor (Roche Applied Science, Cat. #04 693 132 001). For analysis of secreted IL-1β, supernatants (200 μl/1 million cells) from the rest of the CD4 T-cells were collected five days after spinoculation and analyzed using Western blot. For Western blots we used the Bio-Rad Criterion 15% pre-cast Tris-HCl gels. Primary antibodies used were 1/1000 of the mouse monoclonal anti-human IL-1β (R&D Systems, Cat. # MAB201) and 1/10000 of the mouse monoclonal anti-β-Actin (Sigma, Cat. # A5316).

[1] = tested on: CFSE-labeled spleen CD4 T-cells; assay: Indirect killing assay with CFSE-labeled human spleen cells; assay type: cell-based; settings: for loss of CFSE-labeled spleen CD4 T-cells: HIV-infected spleen HLAC effectors; for loss of resting CFSE-labeled spleen CD4 T-cells: HIV-infected tonsil effector cells
Experimental: (B and C) Fresh human spleen from a single donor were processed into HLAC and assessed in indirect cell killing assay as described in FIG. 2A. Effector spleen HLAC were stimulated with PHA and IL-2 48 hours before mixing, but not during co-culturing with CFSE-labeled cells. Non-activated resting CFSE-labeled spleen cells were co-cultured with NL4-3-infected or uninfected effector cells in the presence or absence of the following drugs, AZT (5 μM), AMD3100 (250 nM), Efavirenz (100 nM), or Raltegravir (30 μM), as indicated. […] Percentages were normalized to the number of viable CFSE-positive spleen CD4 T-cells co-cultured with uninfected effectors in the presence of AZT, as depicted by (*). Error bars represent standard error of the mean for three experiments performed with three different spleen and tonsil donors.
Human tonsil or splenic tissues from routine tonsillectomies were obtained from the National Disease Research Interchange and the Cooperative Human Tissue Network and processed as previously described (Jekle et al., 2003, J Virol 77:5846-5854). In brief, tonsils or spleen were minced, passed through a 40-μm cell strainer, and cultured in 96-well U-bottomed polystyrene plates (2×10^6 cells/well) in medium (200 μl/well) consisting of RPMI 1640 supplemented with 15% heat-inactivated fetal bovine serum, 100 μg/ml gentamicin, 200 μg/ml ampicillin, 1 mM sodium pyruvate, 1% nonessential amino acids (Mediatech), 2 mM L-glutamine, and 1% fungizone (Invitrogen). All HIV-1 infections were carried out with 20-50 ng of HIV-1 p24^gag. Cells were incubated with the virus for 12-16 h, washed extensively, and supplemented with fresh medium. After day 5, infections were monitored by measuring p24gag levels in the culture medium using a FLAQ assay (Hayden et al., 2003, AIDS 17:629-631). Infected and uninfected cultures were manipulated as described for individual experiments. In “indirect killing” assays, unless otherwise stated, drugs were used at the following concentrations: 5 μM AZT; 250 nM AMD3100; 10 μg/ml T20; 100 nM Efavirenz; 1 μM Nevirapine; 30 μM Raltegravir; 60 μM 118-D-24; 5 μM Amprenavir; 5 μM Saquinavir; 5 μM Indinavir. CFSE-labeled cells were activated with PHA (5 μg/ml) and IL-2 (20 ng/ml) 2 days before mixing with effector cells.
Uninfected cells (5×10^6/ml) were labeled with 1 μM CFSE (Molecular Probes C1157), treated with 5 μM AZT for 24 h, and co-cultured with effector cells. CFSE readily diffuses into cells, where intracellular esterases cleave the acetate groups, converting it to a fluorescent, membrane-impermeable dye. […] To quantify indirect killing, mixed (CFSE-labeled+effector) cultures were washed in FACS buffer (PBS supplemented with 2 mM EDTA and 2% fetal bovine serum), stained with PE-conjugated anti-CD4, PerCP-conjugated anti-CD19, and APC-conjugated anti-CD8 (all from BD Pharmingen) and fixed in 1% paraformaldehyde. To determine the absolute numbers of the viable CFSE-labeled cells, a standard number of fluorescent beads (Flow-Count Fluorospheres, Beckman Coulter) was added to each cell-suspension sample before data acquisition. Data were collected on a FACS Calibur (BD Biosciences) and analyzed with Flowjo software (Treestar). The level of indirect killing was defined by sequential gating beginning with forward scatter versus side scatter to select live lymphocytes, subgating on the CFSE-positive population, and calculating the numbers of CD4 or CD8 T or B cells, divided by the number of fluorescent beads acquired.

c1cc(CN2CCCNCCNCCCNCC2)ccc1CN1CCCNCCNCCCNCC1 [AMD3100]
loss of HLAC CD4 T-cells over NL4-3-transfected 293T-cells (HLAC CD4 T-cells): completely blocked
maturation and release of bioactive 17 kDa IL-1β after NL4-3 infection (IL-1β): completely prevented; also recorded: blocked
loss of CFSE-labeled spleen CD4 T-cells [1]: prevented the loss of CD4 T-cells as efficiently as AMD3100

Cc1cn([C@H]2C[C@H](N=[N+]=[N-])[C@@H](CO)O2)c(=O)[nH]c1=O [AZT]
loss of HLAC CD4 T-cells over NL4-3-transfected 293T-cells (HLAC CD4 T-cells): occurred both in the presence and absence of AZT
maturation and release of bioactive 17 kDa IL-1β after NL4-3 infection (IL-1β): similarly resulted in maturation and release of the bioactive 17 kDa IL-1β; also recorded: also resulted in release of bioactive 17-kDa IL-1β
loss of CFSE-labeled spleen CD4 T-cells [1]: robust in the absence of drugs or in the presence of AZT
loss of resting CFSE-labeled spleen CD4 T-cells [1]: massively depleted

O=C1Nc2ccc(Cl)cc2[C@@](C#CC2CC2)(C(F)(F)F)O1 [efavirenz]
loss of HLAC CD4 T-cells over NL4-3-transfected 293T-cells (HLAC CD4 T-cells): completely blocked
maturation and release of bioactive 17 kDa IL-1β after NL4-3 infection (IL-1β): completely prevented; also recorded: blocked
loss of CFSE-labeled spleen CD4 T-cells [1]: prevented the loss of CD4 T-cells as efficiently as AMD3100
loss of resting CFSE-labeled spleen CD4 T-cells [1]: prevented this loss of CD4 T-cells
